Assay results from US8114814B2, “Herbicide composition” (Kumiai Chemical Industry Co., Ltd., priority 2007, dated 2012).

Assays:
Settings in all cases: 28th day of the treatment
Cyperus serotinus Rottb. = assay: Test for herbicidal effect by paddy soil treatment; type: in vivo
Source text: (§1) A paddy soil was filled in a plastic pot of 100 cm^2 and subjected to puddling. Thereinto were sowed seeds of Echinochloa oryzicola Vasing, Monochoria vaginalis (Burm. f.) Kunth, Schoenoplectus juncoides (Roxb.) Paila or Cyperus serotinus Rottb., after which water was filled at a depth of 3 cm. Each pot was placed in a greenhouse for raising, At a timing when the Echinochloa oryzicola Vasing reached about a two-leaf stage, a seedling of two-leaf stage rice (variety: Kinnanpuu) was transplanted into each pot at a depth of 2 cm. A wettable powder prepared in accordance with Formulation Example 2 was diluted with water based on the total sum of the active ingredients, and the dilution was dropped on the water surface of the pot. Then, the pot was allowed to stand for raising. The herbicidal effect of the wettable powder was examined at the 28th day of the treatment (the dropping of the dilution) in accordance with the standard of Table 4.

[1] = system: Schoenoplectus juncoides (Roxb.) Paila; assay: Test for herbicidal effect by paddy soil treatment; type: in vivo
Source text: as §1

[2] = system: Monochoria vaginalis (Burm. f.) Kunth; assay: Test for herbicidal effect by paddy soil treatment; type: in vivo
Source text: as §1

[3] = system: Echinochloa oryzicola Vasing; assay: Test for herbicidal effect by paddy soil treatment; type: in vivo
Source text: as §1

[4] = system: Echinochloa crusgalli (L.) P. Beauv. Var. crus-galli; assay: Test for herbicidal effect by paddy foliage treatment; type: in vivo
Source text: (§2) A paddy soil was filled in a plastic pot of 100 cm^2 and subjected to puddling. Thereinto were sowed seeds of rice (variety: Akebono), Echinochloa crusgalli (L.) P. Beauv. Var. crus-galli, Leptochloa chinensis Nees., Monochoria vaginalis (Burm. f.) Kunth, or Fimbristylis miliacea Vahl, after which each plant was raised in a greenhouse in a drained treatment until the Echinochloa crus-galli (L.) P. Beauv. Var. crus-galli reached a two-leaf stage. At that timing, a wettable powder prepared in accordance with Formulation Example 2 was diluted with water based on the total sum of the active ingredients, and the dilution was sprayed at a rate of 20 liters/10 ares using a micro-sprayer (a product of OLYMPOS). 3 days after the spraying, water was filled at a depth of 3 cm. Then, the pot was allowed to stand for raising. The herbicidal effect of the wettable powder was examined at the 28th day of the treatment (the spraying of the dilution) in accordance with the standard of Table 4.

[5] = system: Fimbristylis miliacea Vahl; assay: as above; type: in vivo
Source text: as §2

[6] = system: Leptochloa chinensis Nees.; assay: as above; type: in vivo
Source text: as §2

[7] = system: Monochoria vaginalis (Burm. f.) Kunth; assay: as above; type: in vivo
Source text: as §2

Direct seeding rice = assay: Test for herbicidal effect by paddy foliage treatment: phytotoxicity to direct seeding rice; type: in vivo, rice (variety: Akebono)
Source text: as §2, with “At that timing, a wettable powder prepared in accordance with Formulation Example 2 was diluted with water based on the total sum of the active ingredients, and the dilution was sprayed at a rate of 20 liters/10 ares using a micro-sprayer (a product of OLYMPOS).” left out

Transplanted Rice = assay: Test for herbicidal effect by paddy soil treatment: phytotoxicity to transplanted rice; type: in vivo, rice (variety: Kinnanpuu)
Source text: as §1, with “A wettable powder prepared in accordance with Formulation Example 2 was diluted with water based on the total sum of the active ingredients, and the dilution was dropped on the water surface of the pot.” left out

Row | Structure (SMILES) | phytotoxicity index, Transplanted Rice (Transplanted Rice; Dose 20 g a.i./10a) | herbicidal effect index, Cyperus serotinus (Cyperus serotinus Rottb.; Dose 20 g a.i./10a) | herbicidal effect index, Schoenoplectus juncoides ([1]; Dose 20 g a.i./10a) | herbicidal effect index, Monochoria vaginalis ([2]; Dose 20 g a.i./10a) | herbicidal effect index, Echinochloa oryzicola ([3]; Dose 20 g a.i./10a) | herbicidal effect index, Echinochloa crus-galli ([4]; Dose 20 g a.i./10a) | herbicidal effect index, Fimbristylis miliacea ([5]; Dose 20 g a.i./10a) | herbicidal effect index, Leptochloa chinensis ([6]; Dose 20 g a.i./10a) | herbicidal effect index, Monochoria vaginalis ([7]; Dose 20 g a.i./10a) | phytotoxicity index, Direct seeding rice (Direct seeding rice; Dose 20 g a.i./10a) | other results
1 | Cc1ccc(NC(=O)NC(C)(C)c2ccccc2)cc1 [Daimuron, reference compound] | – | – | – | – | – | – | – | – | – | – | herbicidal effect index, Cyperus serotinus (Cyperus serotinus Rottb.; Dose 150 g a.i./10a): 3 (Herbicidal effect or phytotoxicity of 30% to less than 40%); herbicidal effect index, Schoenoplectus juncoides ([1]; Dose 150 g a.i./10a): 7 (Herbicidal effect or phytotoxicity of 70% to less than 80%); herbicidal effect index, Monochoria vaginalis ([2]; Dose 150 g a.i./10a): 2 (Herbicidal effect or phytotoxicity of 20% to less than 30%); herbicidal effect index, Echinochloa oryzicola ([3]; Dose 150 g a.i./10a): 0 (Herbicidal effect (growth inhibition) or phytotoxicity of less that 10%)
2 | CCC(CC)Nc1c([N+](=O)[O-])cc(C)c(C)c1[N+](=O)[O-] [Pendimethalin, reference compound] | – | – | – | – | – | – | – | – | – | – | herbicidal effect index, Echinochloa crus-galli ([4]; Dose 80 g a.i./10a): 5 (Herbicidal effect or phytotoxicity of 50% to less than 60%); herbicidal effect index, Fimbristylis miliacea ([5]; Dose 80 g a.i./10a): 3 (Herbicidal effect or phytotoxicity of 30% to less than 40%); herbicidal effect index, Leptochloa chinensis ([6]; Dose 80 g a.i./10a): 5 (Herbicidal effect or phytotoxicity of 50% to less than 60%); herbicidal effect index, Monochoria vaginalis ([7]; Dose 80 g a.i./10a): 2 (Herbicidal effect or phytotoxicity of 20% to less than 30%); phytotoxicity index, Direct seeding rice (Direct seeding rice; Dose 80 g a.i./10a): 1 (Herbicidal effect or phytotoxicity of 10% to less than 20%)
3 | CC1(C)CC(SCc2ccccc2)=NO1 [Compound 1] | 1 (Herbicidal effect or phytotoxicity of 10% to less than 20%) | 2 (Herbicidal effect or phytotoxicity of 20% to less than 30%) | 6 (Herbicidal effect or phytotoxicity of 60% to less than 70%) | 4 (Herbicidal effect or phytotoxicity of 40% to less than 50%) | 8 (Herbicidal effect or phytotoxicity of 80% to less than 90%) | – | – | – | – | – | –
4 | COC(=O)c1ccccc1CS(=O)(=O)NC(=O)Nc1nc(OC)cc(OC)n1 [Bensulfuron-methyl, reference compound] | – | – | – | – | – | – | – | – | – | – | herbicidal effect index, Cyperus serotinus (Cyperus serotinus Rottb.; Dose 1 g a.i./10a): 7 (Herbicidal effect or phytotoxicity of 70% to less than 80%); herbicidal effect index, Schoenoplectus juncoides ([1]; Dose 1 g a.i./10a): 7 (Herbicidal effect or phytotoxicity of 70% to less than 80%); herbicidal effect index, Monochoria vaginalis ([2]; Dose 1 g a.i./10a): 8 (Herbicidal effect or phytotoxicity of 80% to less than 90%); herbicidal effect index, Echinochloa oryzicola ([3]; Dose 1 g a.i./10a): 3 (Herbicidal effect or phytotoxicity of 30% to less than 40%)
5 | C#CCOc1ccc(Cl)c(Cl)c1CS(=O)(=O)C1=NOC(C)(C)C1 [Compound 33] | – | – | – | – | – | 7 (Herbicidal effect or phytotoxicity of 70% to less than 80%) | 3 (Herbicidal effect or phytotoxicity of 30% to less than 40%) | 6 (Herbicidal effect or phytotoxicity of 60% to less than 70%) | 6 (Herbicidal effect or phytotoxicity of 60% to less than 70%) | 1 (Herbicidal effect or phytotoxicity of 10% to less than 20%) | –
6 | CC1(C)CC(S(=O)(=O)Cc2c(OCC(F)(F)F)ccc(Cl)c2Cl)=NO1 [Compound 31] | 1 (Herbicidal effect or phytotoxicity of 10% to less than 20%) | 2 (Herbicidal effect or phytotoxicity of 20% to less than 30%) | 4 (Herbicidal effect or phytotoxicity of 40% to less than 50%) | 5 (Herbicidal effect or phytotoxicity of 50% to less than 60%) | 8 (Herbicidal effect or phytotoxicity of 80% to less than 90%) | 6 (Herbicidal effect or phytotoxicity of 60% to less than 70%) | 2 (Herbicidal effect or phytotoxicity of 20% to less than 30%) | 3 (Herbicidal effect or phytotoxicity of 30% to less than 40%) | 3 (Herbicidal effect or phytotoxicity of 30% to less than 40%) | 2 (Herbicidal effect or phytotoxicity of 20% to less than 30%) | –
7 | CCOc1cc(Cl)c(CS(=O)(=O)C2=NOC(C)(C)C2)cc1Cl [Compound 54] | 1 (Herbicidal effect or phytotoxicity of 10% to less than 20%) | 1 (Herbicidal effect or phytotoxicity of 10% to less than 20%) | 2 (Herbicidal effect or phytotoxicity of 20% to less than 30%) | 5 (Herbicidal effect or phytotoxicity of 50% to less than 60%) | 8 (Herbicidal effect or phytotoxicity of 80% to less than 90%) | 7 (Herbicidal effect or phytotoxicity of 70% to less than 80%) | 2 (Herbicidal effect or phytotoxicity of 20% to less than 30%) | 6 (Herbicidal effect or phytotoxicity of 60% to less than 70%) | 4 (Herbicidal effect or phytotoxicity of 40% to less than 50%) | 2 (Herbicidal effect or phytotoxicity of 20% to less than 30%) | –
8 | COCc1cccc(C(O)c2nc(OC)cc(OC)n2)c1NS(=O)(=O)C(F)F (stereo not shown) [Pyrimisulfan, reference compound] | – | – | – | – | – | – | – | – | – | – | phytotoxicity index, Transplanted Rice (Transplanted Rice; Dose 1 g a.i./10a): 1 (Herbicidal effect or phytotoxicity of 10% to less than 20%); herbicidal effect index, Cyperus serotinus (Cyperus serotinus Rottb.; Dose 1 g a.i./10a): 9 (Herbicidal effect or phytotoxicity of 90% to less than 100%); herbicidal effect index, Schoenoplectus juncoides ([1]; Dose 1 g a.i./10a): 9 (Herbicidal effect or phytotoxicity of 90% to less than 100%); herbicidal effect index, Monochoria vaginalis ([2]; Dose 1 g a.i./10a): 6 (Herbicidal effect or phytotoxicity of 60% to less than 70%); herbicidal effect index, Echinochloa oryzicola ([3]; Dose 1 g a.i./10a): 6 (Herbicidal effect or phytotoxicity of 60% to less than 70%)
9 | CC1(C)CC(S(=O)(=O)Cc2c(OCC(F)F)ccc(Cl)c2Cl)=NO1 [Compound 34] | – | – | – | – | – | 5 (Herbicidal effect or phytotoxicity of 50% to less than 60%) | 4 (Herbicidal effect or phytotoxicity of 40% to less than 50%) | 3 (Herbicidal effect or phytotoxicity of 30% to less than 40%) | 5 (Herbicidal effect or phytotoxicity of 50% to less than 60%) | 2 (Herbicidal effect or phytotoxicity of 20% to less than 30%) | –
10 | CCOC(=O)c1cnn(C)c1S(=O)(=O)NC(=O)Nc1nc(OC)cc(OC)n1 [Pyrazosulfuron-ethyl, reference compound] | – | – | – | – | – | – | – | – | – | – | herbicidal effect index, Echinochloa crus-galli ([4]; Dose 3 g a.i./10a): 2 (Herbicidal effect or phytotoxicity of 20% to less than 30%); herbicidal effect index, Fimbristylis miliacea ([5]; Dose 3 g a.i./10a): 8 (Herbicidal effect or phytotoxicity of 80% to less than 90%); herbicidal effect index, Leptochloa chinensis ([6]; Dose 3 g a.i./10a): 0 (Herbicidal effect (growth inhibition) or phytotoxicity of less that 10%); herbicidal effect index, Monochoria vaginalis ([7]; Dose 3 g a.i./10a): 6 (Herbicidal effect or phytotoxicity of 60% to less than 70%); phytotoxicity index, Direct seeding rice (Direct seeding rice; Dose 3 g a.i./10a): 1 (Herbicidal effect or phytotoxicity of 10% to less than 20%)
